Reference: patent US10556926B2, “Synthetic artificial peptides with antimicrobial effect” (priority 2014, dated 2020)
No end group written: not given here.

How the values were obtained:
E. coli DH5α = details: DH5α, 18 h
Experimental: (§1) The minimum inhibitory concentration (MIC) of the peptides was carried out by way of example against gram(−) E. coli DH5α (and gram(+) Staphylococcus xylosus (both Deutsche Sammlung von Mikroorganismen and Zellkulturen, DSMZ) in a standardized microdilution method according to the general guidelines of the CLSI (Clinical and Laboratory Standards Institute 2006) and EUCAST (European Committee for Antimicrobial Susceptibility Testing of the European Society of Clinical Microbiology and Infectious Diseases 2003) with slight adaptations to the investigation of cationic antimicrobial peptides (Wiegand et al. 2008). The bacteria cells were cultivated in Mueller-Hinton-Boullion (MHB) to an optical density of 0.4 to 0.6 at 600 nm wavelength, corresponding to about 4·10^8 bacteria per ml. Then, the bacteria cultures were diluted to a bacteria concentration of about 1·10^5 bacteria per ml in sterile MHB. Using the peptides, series of 2-fold dilutions starting at 128 μM to the smallest dilution of 0.5 μM in MHB were prepared. The peptide dilutions were mixed with the dilute bacteria cultures in a […] in the chambers of a 96-well polypropylene microtiter plate (Starlab, Hamburg, Germany), so that the peptides were present in an end concentration between 64 μM and 0.25 μM at a bacteria concentration of 5·10^4 bacteria/ml. Sterile MHB served as negative control, and the positive control used as the corresponding bacteria concentration in MHB without the addition of peptide. The microtiter plates were incubated for 18 hours at 37° C. with shaking at 120 rpm in a climatically controlled chamber. After the incubation, the bacteria concentration was determined by renewed absorption measurement at a wavelength of 600 nm.

Staphylococcus xylosus = details: 18 h
Experimental: as §1

[1] = test system: human histiocytic lymphoma cell line U937; assay: Cytotoxicity, direct membrane damage (CytoTox 96), LD50; format: cell-based; details: U937, two hours at 37° C., 0.25-64 μM
Experimental: The direct membrane damage was investigated with the help of the CytoTox 96 Non-Radioactive Cytotoxicity Assay (Promega, Mannheim, Germany). For this purpose, the cells were sedimented at 100 g for ten minutes at 4° C., and 50 μl of the resulting culture supernatant were added to 50 μl of the CytoTox substrate mix. After an incubation time of 30 minutes in the dark at room temperature, 50 μl of the CytoTox stopping solution were added to the sample and the absorption was measured at 490 nm. To determine the LD50 value, the measurement value of the negative control was deducted from the absorption values and divided by the measurement value of the permeabilization control. The calculated values were plotted graphically against the peptide concentration and fitted using the Origin pro 8.1 G Software according to a sigmoidal model and the LD50 values were ascertained from this. The calculation was carried out analogously to example 5 by reference to the solution of equation 5.1 for the case y=50, where y in this case corresponds to the relative cytotoxicity in percent and x corresponds to the peptide concentration in μM. Representative graphical evaluations of LD50 values are shown in FIG. 6 by reference to the measurement results for the reference peptides BMAP-27, protamine and KL-helix, and also the peptide O1 according to the invention.

[2] = test system: human histiocytic lymphoma cell line U937; assay: Long-term growth inhibition, minimum toxic concentration (MTC)
Experimental: The cytotoxic potential of the antimicrobial peptides was determined by way of example by reference to the human histiocytic lymphoma cell line U937 (DSMZ). The influence of the peptides on the permeability of the cell membrane and their longer-term growth-inhibiting effect was investigated. 15 ml of RPMI 1640 medium with 2 mM glutamine and 10% FCS (Biochrom, Berlin, Germany) were inoculated with 1·10^5 cells per ml and cultivated for three days at 37° in T75 cell culture bottles (TPP, Trasadingen, Switzerland) with constant gassing with 5% CO2 in a climatically controlled chamber. The medium was admixed with 10 U/ml penicillin and […] streptomycin (both AppliChem, Darmstadt, Germany) to avoid bacterial contaminations, with no further antibiotics being added during the subsequent recultivation. Before each experiment, the cells were washed by centrifugation at 100 g for five minutes and subsequent resuspension in RPMI 1640 medium with 2 mM glutamine and 10% FCS in each case two times and adjusted to a concentration of 1·10^5 cells per ml. Finally, in each case 100 μl of the U937 cells were transferred to the reaction chambers of a sterile 96-well polypropylene microtiter plate and admixed with in each case 100 μl of a prediluted antimicrobial peptide in RPMI 1640 medium without antibiotic addition, such that end concentrations of in each case 5·10^4 cells per ml at peptide concentrations between 0.25 μM and 64 μM were present. The negative control used was samples without antimicrobial peptide, while Triton X-100 (AppliChem) was used in an end concentration of 5% as positive control for the permeabilization. The samples were cultivated for two hours at 37° C. and with continuous gassing with 5% CO2 in a climatically controlled chamber. Then, in each case 100 μl of each sample were removed and transferred to new sterile microtiter plates for determining the direct membrane damage. The remaining 100 μl of the samples were cultivated for at least four further days.
For this purpose, 10 μl of lysing solution were added to in each case 100 μl of cell suspension and incubated for 60 minutes at 37° C. Then, the cell culture supernatants were investigated as described above. The lowest peptide concentration at which complete suppression of the cell growth was established after four days was stipulated as the minimum toxic concentration (MTC).

human cell line U937 = assay: Mixed culture experiment (bacterially contaminated cell culture), eukaryotic cells; format: cell-based; details: 25 and 50 μM peptide, two hours, with S. xylosus
Experimental: Destruction of the bacteria membranes by the antimicrobial peptides was investigated in a flow cytometric method with the help of a living/dead staining method in combination with an internal calibration and counting system. For this purpose, SYBR Green I (Sigma-Aldrich) was used as total staining and propidium iodide (Sigma-Aldrich) was used as contrast staining for membrane-damaged bacteria. […] The flow analysis was carried out on a Cytomics FC500 Instrument (Beckmann Coulter, Munich, Germany) equipped with an argon laser (488 nm) and the corresponding emission filters for SYBR Green I (525 nm) and propidium iodide (620 nm). […] Then, the mixture was incubated for 10 min in the dark at room temperature and then measured by flow cytometry. The number of events in each gate was captured and evaluated using the CXP Analyses 2.2 Software. The total number of living and dead bacteria was calculated. […]
The ability of the antimicrobial peptides to be used as a therapeutic active ingredient was investigated by reference to its selective antimicrobial properties in model mixed culture experiments. […] Then, the mixed cell cultures were stained and measured by flow cytometry as described in example 3, the measurement scale being adapted to the measurement of the larger eukaryotic cells.

Sequence: KKKIIIIIIKKK [O1]
- MIC E. coli (E. coli DH5α): 8 µM
- MIC S. xylosus (Staphylococcus xylosus): 0.5 µM
- Toxicity LD50 [1]: >64 µM
- Toxicity MTC (minimum toxic concentration) [2]: >64 µM
- Effect on eukaryotic U937 cells in mixed culture (human cell line U937): remain uninfluenced
